Results from ChEMBL document CHEMBL3301451, “MMV Malaria Box gametocyte functional viability assay screening”.

How the values were obtained:
[1] = test system: Plasmodium falciparum; test: (§1) MMV: P. falciparum NF54 functionally mature Stage V gametocytes were incubated for 24 hr in the presence of the test compounds. Gamete formation was then triggered by addition of 2uM xantheurenic acid and temperature decrease to ~20C. Female gamete formation was recorded 24 hr later by automated microscopy detection of surface labelling of female gametes with a Cy3-conjugated antibody reactive to Pfs25. All compounds were tested in 4 independent experiments and data presented here is the mean. IC50s determined for selected compounds.; format: functional, organism-based; conditions: NF54, 24 h
[2] = test system: Plasmodium falciparum; test: (§2) MMV: P. falciparum NF54 functionally mature Stage V gametocytes were incubated for 24 hr in the presence of the test compounds. Gamete formation was then triggered by addition of 2uM xantheurenic acid and temperature decrease to ~20C. Male gamete exflagellation was recorded and analysed by automated microscopy after 20 min. All compounds were tested in 4 independent experiments and data presented here is the mean. IC50s determined for selected compounds.; format: functional, organism-based
[3] = test system: Plasmodium falciparum; test: as §2, with “mean.” for “mean. IC50s determined for selected compounds.”; format: functional; parameters: concentration or dose not given beside the values
[4] = test system: Plasmodium falciparum; test: as §1, with “mean.” for “mean. IC50s determined for selected compounds.”; format: functional; parameters: concentration or dose not given beside the values; conditions: NF54, 24 h
[5] = test system: Plasmodium berghei; test: MMV: P. berghei-infected blood was withdrawn from mice by cardiac pucture before being immediately added to ookinete culture medium containing test compounds. 26 hr later, GFP-positive ookinetes were identified and counted by automated microscopy. All compounds were tested in 4 independent experiments and data presented here is the mean.; format: functional; parameters: concentration or dose not given beside the values

| Structure (SMILES) | IC50 [1] [µM] | IC50 [2] [µM] | inhibition [3] [%] | inhibition [4] [%] | inhibition [5] [%] |
| --- | --- | --- | --- | --- | --- |
| COc1ccc2c(c1)C1(Nc3ccccc3-c3nc4ccccc4n31)C(=O)N2 (configuration not stated) | 6.45 | 2.9 | 48.2 | 24 | 54.64 |
| CCOC(=O)c1cn(CC)c2cc(N(C)CCc3ccc(OC)c(OC)c3)c(F)cc2c1=O | > 50 | 0.045 | 71.2 | -15 | 20.52 |
| Nc1ccc(-c2nc3cc(Cc4ccc5[nH]c(-c6ccc(N)cc6)nc5c4)ccc3[nH]2)cc1 | – | – | 26.6 | 2.76 | -14.26 |
| O=C(O)C(=O)O.Oc1ccccc1CN1CCN(C(c2ccccc2)c2ccccc2)CC1 | – | – | 23.5 | -11.9 | 19.05 |
| CCCCOC(=O)c1ccc(Nc2cc(C)nc3ccc(OC)cc23)cc1 | – | – | -6.31 | -6.56 | -4.495 |
| Cc1ccc(-c2cc3c(SCC(=O)Nc4cc(C(F)(F)F)ccc4Cl)nccn3n2)cc1 | – | – | 11.4 | 0.168 | -10.47 |
| COc1ccc(Nc2nc(N/N=C/c3ccc(O)cc3)nc(Nc3ccc([N+](=O)[O-])cc3)n2)cc1 | – | – | -4.02 | -19.8 | 30.88 |
| O=C(NC1CCN(Cc2ccccc2)CC1)c1cc(-c2ccncc2)nc2ccc(Cl)cc12 | – | – | -6.34 | -10.1 | -9.022 |
| CC(C)=CCN1CCC(C(=O)Nc2ccc(-c3nc4ccccc4[nH]3)cc2)CC1 | – | – | -15.4 | -19.7 | -16.54 |
| Oc1ccc(Br)cc1CN1CCN(Cc2ccc(Cl)cc2)CC1 | – | – | -54.3 | -35.8 | -27.93 |
| Cc1sc(NC(=O)c2ccco2)c(C(c2cccnc2)N2CCC(Cc3ccccc3)CC2)c1C (configuration not stated) | – | – | 9.35 | -26 | -7.977 |
| O=C(Cc1ccccc1)NC(c1ccc(Cl)cc1)c1c(O)ccc2ccccc12 (configuration not stated) | – | – | 54.1 | 10.7 | -6.482 |
| CCOC(=O)C1=CN(C)C=C(C(=O)OCC)C1c1cc(Br)c(OCC)c(OC)c1 | – | – | 22.3 | -20.1 | -13.86 |
| OC(CNC1CCCCC1)Cn1c2ccc(I)cc2c2cc(I)ccc21 (configuration not stated) | – | – | -12.3 | -48 | -21.59 |
| COc1nc(Nc2ccc(C(C)C)cc2)nc(OC)n1 | – | – | -0.697 | -59.5 | -7.623 |
| c1ccc2cc3c(Nc4ccc(N5CCOCC5)cc4)ccnc3cc2c1 | – | – | 13.2 | -0.0777 | 12.53 |
| CN1C=C(c2ccc3ccccc3n2)C(c2c[nH]c3ccccc23)c2ccccc21 (configuration not stated) | – | – | -6.39 | -36.4 | -19.58 |
| COc1cccc(C(=O)NC(c2ccc(C)cc2)c2cc(Cl)c3cccnc3c2O)c1 (configuration not stated) | – | – | 19.5 | 0.843 | -20.64 |
| O=C(NC1CCCCC1)C(c1cccs1)N(CCc1ccccc1)C(=O)c1ccco1 (configuration not stated) | – | – | 6.52 | -15.1 | -4.107 |
| O=C(Nc1ccc(Cl)cc1)N1CCN(c2ccc3nncn3n2)CC1 | – | – | 25.9 | -16.6 | 8.279 |
| COc1cccc(C(=O)Nc2ccc(-c3nc4ccccc4[nH]3)cc2)c1 | – | – | 24 | 1.53 | 18.46 |

| Structure (SMILES) | IC50 [1] [µM] | IC50 [2] [µM] | inhibition [3] [%] | inhibition [4] [%] | inhibition [5] [%] |
| --- | --- | --- | --- | --- | --- |
| C=CCc1c(C)nc2ccccc2c1O | – | – | 52.3 | -51.4 | 19.81 |
| Cl.N=c1n(CCN2CCCCC2)c2ccccc2n1CC(O)c1cccc(Br)c1 (configuration not stated) | – | – | -19.3 | -26.6 | -14.54 |
| COc1ccc(C2NCCc3c2[nH]c2ccccc32)cc1CN1CCN(c2ccc(F)cc2)CC1.Cl (configuration not stated) | – | – | 5.86 | -18.1 | -1.071 |
| Cc1ccc(-c2cc3nc4c(c(O)n3n2)CCCC4)cc1 | – | – | 22.3 | -14.6 | 12.06 |
| COc1cc(C(=O)Nc2nc3c(cc4c5c(cccc53)CC4)s2)cc(OC)c1OC | – | – | -1.82 | -22.3 | 5.808 |
| CSC1=NC(=Nc2c(C)cccc2C)C2(CCC(C(C)(C)C)CC2)N1c1ccc(Cl)cc1 (configuration not stated) | – | – | 15.7 | -11.8 | 10.1 |
| CCOc1c(Br)cc(C2C(C(=O)OC)=CN(C)C=C2C(=O)OC)cc1OC | – | – | 8.8 | 4.74 | -9.574 |
| CC(=O)NCCc1nc2ccccc2n1Cc1ccc(C(C)C)cc1 | – | – | -6.3 | -12.8 | -8.216 |
| COc1ccc(CNC2CCN(c3ccc(NC(=O)c4cccc(Cl)c4)cc3)CC2)cc1OC | – | – | 15 | -36.5 | -11.96 |
| CC(NCc1ccccc1)c1cc(Cl)ccc1O (configuration not stated) | – | – | -5.35 | -17.3 | -6.231 |
| Cc1ccc(N2C(=O)C3C(C2=O)C2(c4ccccc4)C(=O)C3(c3ccccc3)C(c3ccccc3)=C2c2ccccc2)cc1 (configuration not stated) | – | – | 21.2 | -19.9 | -15.1 |
| OC(CNC1CCCCC1)Cn1c2ccccc2c2ccccc21 (configuration not stated) | – | – | 12.1 | 4.91 | 28.1 |
| COc1ccc2nc(C)cc(Nc3ccc(Cl)cc3)c2c1 | – | – | -17.3 | -15.3 | 4.092 |
| COc1ccc(C2c3ccc4ccccc4c3Oc3ncn(CCCn4ccnc4)c(=N)c32)cc1OC (configuration not stated) | – | – | 17.5 | -9.13 | 36.85 |
| CCOC(=O)c1c(NC(=O)c2ccccc2)sc2c(O)c(CN(CC)CC)ccc12 | – | – | 51 | -19.6 | -23.17 |
| COc1ccccc1CNC(=O)CCn1c(=O)[nH]c2ccccc2c1=O | – | – | 13.3 | -26.4 | -17.49 |
| Cc1nc2ccccc2c(O)c1CC=C(Cl)Cl | – | – | 6.46 | -3.75 | 2.285 |
| CC1CCCCN1CCCNC(=O)c1ccc2c(c1)sc1nc(-c3ccc(F)cc3)cn12 (configuration not stated) | – | – | -15.9 | -12.6 | 0.9156 |
| CN1CCN(c2c3c(c(C#N)c4nc5ccccc5n24)CCC3)CC1 | – | – | 16.1 | -10.7 | 0.2959 |
| CCN1CCCC1CNc1[nH]cnc2c3cc(Cl)ccc3nc1-2 (configuration not stated) | – | – | 18.2 | 3.48 | -0.006896 |
| Cc1cc(Nc2ccc3ccccc3c2)n2ncnc2n1 | – | – | -4.18 | -8.79 | -3.995 |

| Structure (SMILES) | IC50 [1] [µM] | IC50 [2] [µM] | inhibition [3] [%] | inhibition [4] [%] | inhibition [5] [%] |
| --- | --- | --- | --- | --- | --- |
| CCN(CC)CCNc1ncnc2c1[nH]c1ccc(Cl)cc12 | – | – | -43.5 | -27.6 | -19.34 |
| CCCCCCC(O)(c1ccc(F)cc1)C(CN1CCOCC1)c1ccccc1.Cl (configuration not stated) | – | – | -64 | 17.7 | -9.863 |
| COc1ccccc1CNC(=O)C1c2ccccc2C(=O)N(CC(C)C)C1c1cccs1 (configuration not stated) | – | – | 8.38 | -15.9 | -12.03 |
| Oc1c2c(nc3cc(-c4ccccc4)nn13)CCCC2 | – | – | 1.37 | -27.5 | 4.402 |
| Cc1ccc(F)cc1NC(=O)c1cc(Cl)ccc1Nc1ccccc1 | – | – | 43.2 | -12.6 | 6.256 |
| O=C(O)C1Cc2c([nH]c3ccccc23)C(c2ccc(Cl)cc2Cl)N1 (configuration not stated) | – | – | 21 | -17.3 | -13.83 |
| COc1ccc2c(c1OC)C(=O)N1c3ccccc3N=C(c3ccc(C)cc3)CC21 (configuration not stated) | – | – | 8.91 | -8.58 | -1.051 |
| Cl.Cn1c(=O)n(C)c2cc(CNCCNc3ccnc4cc(Cl)ccc34)ccc21 | – | – | -3.18 | -26.8 | -19.76 |
| CCOc1ccc(-c2nc(NC(=O)c3cccc(S(C)(=O)=O)c3)sc2C)cc1 | – | – | 0.81 | -21 | -6.261 |
| COc1cccc(O)c1CN1CCC2(CCCN(Cc3ccc(F)cc3)C2)C1 (configuration not stated) | – | – | -5.07 | -15.6 | 0.1358 |
| CCN(CC)CCn1c(=N)n(CC(O)c2ccc(Cl)c(Cl)c2)c2ccccc21.Cl (configuration not stated) | – | – | -66.5 | 7.92 | -13 |
| Cc1cc(NCCN2CCCCC2)c2ccc3ccccc3c2n1 | – | – | -47.9 | 7.19 | -8.584 |
| CCCCc1c(CCC)c(=N)c2ccccc2n1C.I | – | – | -57 | -25.6 | -7.021 |
| COc1ccc(NC(=O)C2c3ccccc3C(=O)N(CC(C)C)C2c2cccs2)cc1 (configuration not stated) | – | – | 22.3 | 13.9 | -10.74 |
| CCOc1ccc(-c2nonc2NC(=O)c2cccc(C)c2)cc1OCC | – | – | 52.4 | -7.75 | -6.946 |
| CCOc1cc2c(cc1OCC)C(c1cc(OC)c(O)cc1Cl)NCC2 (configuration not stated) | – | – | 19.6 | -6.96 | -21.67 |
| CCCCC(O)(c1ccc(Cl)cc1)C(CN1CCOCC1)c1ccc(Cl)cc1.Cl (configuration not stated) | – | – | -10.1 | -22.4 | -12.32 |
| COc1ccc(C(O)(CCC(C)C)C(CN2CCOCC2)c2ccc(Cl)cc2)cc1.Cl (configuration not stated) | – | – | -0.282 | 6.32 | 5.473 |
| CN(C)CCNc1cc(-c2ccccc2)nc2ccccc12 | – | – | 2.52 | -24.1 | -1.411 |
